Results published in BindingDB's records for doi:10.1021/jm030306r (Merck Research Laboratories, 2003).

Target: Integrin alpha-IIb/beta-3 (Homo sapiens, UniProt P08514+P05106)
Assay: Inhibition of alphaIIb-beta3 integrin mediated platelet aggregation

Chain of Integrin alpha-IIb/beta-3 (P05106 27-788 limits assumed): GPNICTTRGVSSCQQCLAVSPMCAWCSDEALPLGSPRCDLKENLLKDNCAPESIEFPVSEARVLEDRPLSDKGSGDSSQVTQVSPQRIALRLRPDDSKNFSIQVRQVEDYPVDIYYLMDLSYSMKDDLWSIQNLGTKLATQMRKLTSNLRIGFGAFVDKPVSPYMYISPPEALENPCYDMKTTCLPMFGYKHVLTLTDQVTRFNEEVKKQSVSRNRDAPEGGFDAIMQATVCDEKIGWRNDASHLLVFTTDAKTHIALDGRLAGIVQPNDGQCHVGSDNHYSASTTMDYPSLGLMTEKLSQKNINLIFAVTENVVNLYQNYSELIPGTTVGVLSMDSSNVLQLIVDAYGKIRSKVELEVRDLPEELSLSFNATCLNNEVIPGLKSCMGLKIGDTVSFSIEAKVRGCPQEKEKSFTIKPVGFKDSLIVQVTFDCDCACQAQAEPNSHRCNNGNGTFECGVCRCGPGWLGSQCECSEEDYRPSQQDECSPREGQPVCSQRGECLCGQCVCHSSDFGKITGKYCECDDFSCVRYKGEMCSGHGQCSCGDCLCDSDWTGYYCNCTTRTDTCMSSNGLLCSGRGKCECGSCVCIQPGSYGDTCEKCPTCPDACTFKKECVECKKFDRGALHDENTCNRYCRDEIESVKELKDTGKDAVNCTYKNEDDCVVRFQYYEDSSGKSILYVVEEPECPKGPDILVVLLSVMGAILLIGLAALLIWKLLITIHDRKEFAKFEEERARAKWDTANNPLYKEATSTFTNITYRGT
Chain of Integrin alpha-IIb/beta-3 (P08514 32-887 limits assumed): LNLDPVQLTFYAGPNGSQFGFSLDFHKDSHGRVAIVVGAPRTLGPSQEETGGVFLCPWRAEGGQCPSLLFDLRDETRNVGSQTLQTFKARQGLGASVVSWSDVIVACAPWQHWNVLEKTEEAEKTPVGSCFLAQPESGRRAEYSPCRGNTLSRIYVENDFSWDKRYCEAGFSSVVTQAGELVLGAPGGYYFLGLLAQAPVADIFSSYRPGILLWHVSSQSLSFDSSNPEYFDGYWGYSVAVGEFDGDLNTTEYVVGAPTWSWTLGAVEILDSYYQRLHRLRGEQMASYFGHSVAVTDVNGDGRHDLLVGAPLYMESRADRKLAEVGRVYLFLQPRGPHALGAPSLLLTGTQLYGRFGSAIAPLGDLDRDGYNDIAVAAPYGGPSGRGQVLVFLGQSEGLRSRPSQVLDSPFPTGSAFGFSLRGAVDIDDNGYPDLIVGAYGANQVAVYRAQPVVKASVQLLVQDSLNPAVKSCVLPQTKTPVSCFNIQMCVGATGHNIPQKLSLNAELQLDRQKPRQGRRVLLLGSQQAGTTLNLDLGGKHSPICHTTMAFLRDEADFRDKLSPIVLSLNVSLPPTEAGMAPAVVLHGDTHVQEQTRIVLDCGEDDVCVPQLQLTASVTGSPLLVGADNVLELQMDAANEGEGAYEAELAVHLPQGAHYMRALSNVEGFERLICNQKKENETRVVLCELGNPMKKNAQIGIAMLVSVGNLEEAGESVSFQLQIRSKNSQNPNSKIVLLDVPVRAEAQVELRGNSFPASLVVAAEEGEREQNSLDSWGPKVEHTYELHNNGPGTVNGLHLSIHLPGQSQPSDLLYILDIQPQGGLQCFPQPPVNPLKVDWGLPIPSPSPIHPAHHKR
Chain of Integrin alpha-IIb/beta-3 (P08514 891-1039 limits assumed): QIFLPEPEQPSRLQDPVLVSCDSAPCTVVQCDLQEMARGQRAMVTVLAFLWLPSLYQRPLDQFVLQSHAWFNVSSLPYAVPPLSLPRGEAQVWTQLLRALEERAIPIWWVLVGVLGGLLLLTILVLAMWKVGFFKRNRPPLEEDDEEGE

Question: Which IC50 does the source give for COc1ccc([C@H](CC(=O)O)N2CCN(CCCc3ccc4c(n3)NCCC4)C2=O)cn1 [(S)-3-(6-Methoxy-pyridin-3-yl)-3-{2-oxo-3-[3-(5,6,7,8-tetrahydro-[1,8]naphthyridin-2-yl)-propyl]-imidazolidin-1-yl}-propionic acid] here?
Answer: 34.7 µM
